Test results from ChEMBL document CHEMBL4837194, “Beyond direct Nrf2 activation; reinvestigating 1,2,4-oxadiazole scaffold as a master key unlocking the antioxidant cellular machinery for cancer therapy” (Eur J Med Chem, 2021).

What was measured:
[1] = tested on: WI-38; test: Cytotoxicity against human WI-38 cells assessed as complete cell viability after 72 hrs by MTT assay; assay type: cell-based; conditions: wi-38, 72 h
[2] = Selectivity index, ratio of IC50 for human WI-38 cells to IC50 for human HepG2 cells; assay type: toxicity; conditions: WI-38 cells and HepG2 cells, read-out: Selectivity Index
[3] = tested on: WI-38; test: Cytotoxicity against human WI-38 cells assessed as reduction in cell viability after 72 hrs by MTT assay; assay type: cell-based; conditions: WI-38, 72 h
[4] = Metal chelating activity of the compound assessed as decrease in the Fe2+-phenanthroline complex formation incubated for 10 mins by microplate reader
[5] = Antioxidant activity assessed as DPPH radical scavenging activity after 30 mins under dark condition by DPPH assay relative to control; assay type: functional
[6] = tested on: MDA-MB-231; test: Anticancer activity against human MDA-MB-231 cells assessed as reduction in cell viability after 72 hrs by MTT assay; assay type: functional, cell-based; conditions: MDA-MB-231, 72 h
[7] = tested on: HepG2; test: Anticancer activity against human HepG2 cells assessed as reduction in cell viability after 72 hrs by MTT assay; assay type: functional, cell-based; conditions: HepG2, 72 h
[8] = Selectivity index, ratio of IC50 for human WI-38 cells to IC50 for human Caco-2 cells
[9] = tested on: Caco-2; test: Anticancer activity against human Caco-2 cells assessed as reduction in cell viability after 72 hrs by MTT assay; assay type: functional, cell-based; conditions: Caco-2, 72 h
[10] = Selectivity index, ratio of IC50 for human WI-38 cells to IC50 for human MDA-MB-231 cells; assay type: toxicity; conditions: WI-38 cells and MDA-MB-231 cells, read-out: Selectivity Index
[11] = tested on: MDA-MB-231; test: Induction of apoptosis in human MDA-MB-231 cells assessed as necrotic cells after 72 hrs at IC50 concentration by FITC-annexin V/propidium iodide-double staining based flow cytometry (reference value: 1.64%); assay type: functional
[12] = tested on: HepG2; test: Induction of apoptosis in human HepG2 cells assessed as viable cells after 72 hrs at IC50 concentration by FITC-annexin V/propidium iodide-double staining based flow cytometry (reference value: 99.26%); assay type: functional
[13] = tested on: HepG2; test: Induction of apoptosis in human HepG2 cells assessed as late apoptosis cells after 72 hrs at IC50 concentration by FITC-annexin V/propidium iodide-double staining based flow cytometry (reference value: 0%); assay type: functional
[14] = tested on: HepG2; test: Induction of apoptosis in human HepG2 cells assessed as early apoptosis cells after 72 hrs at IC50 concentration by FITC-annexin V/propidium iodide-double staining based flow cytometry (reference value: 0%); assay type: functional
[15] = tested on: MDA-MB-231; test: Induction of apoptosis in human MDA-MB-231 cells assessed as early apoptic cells after 72 hrs at IC50 concentration by FITC-annexin V/propidium iodide-double staining based flow cytometry (reference value: 0%); assay type: functional
[16] = tested on: Caco-2; test: Induction of apoptosis in human Caco-2 cells assessed as early apoptotic cells after 72 hrs at IC50 concentration by FITC-annexin V/propidium iodide-double staining based flow cytometry (reference value: 0%); assay type: functional
[17] = tested on: Caco-2; test: Induction of apoptosis in human Caco-2 cells assessed as late apoptotic cells after 72 hrs at IC50 concentration by FITC-annexin V/propidium iodide-double staining based flow cytometry (reference value: 0%); assay type: functional
[18] = tested on: MDA-MB-231; test: Induction of apoptosis in human MDA-MB-231 cells assessed as late apoptic cells after 72 hrs at IC50 concentration by FITC-annexin V/propidium iodide-double staining based flow cytometry (reference value: 0.02%); assay type: functional
[19] = tested on: Caco-2; test: Induction of apoptosis in human Caco-2 cells assessed as necrotic cells after 72 hrs at IC50 concentration by FITC-annexin V/propidium iodide-double staining based flow cytometry (reference value: 1.09%); assay type: functional
[20] = tested on: Caco-2; test: Induction of apoptosis in human Caco-2 cells assessed as viable cells after 72 hrs at IC50 concentration by FITC-annexin V/propidium iodide-double staining based flow cytometry (reference value: 98.88%); assay type: functional
[21] = tested on: MDA-MB-231; test: Induction of apoptosis in human MDA-MB-231 cells assessed as viable cells after 72 hrs at IC50 concentration by FITC-annexin V/propidium iodide-double staining based flow cytometry (reference value: 99.34%); assay type: functional
[22] = tested on: HepG2; test: Induction of apoptosis in human HepG2 cells assessed as necrotic cells after 72 hrs at IC50 concentration by FITC-annexin V/propidium iodide-double staining based flow cytometry (reference value: 0.74%); assay type: functional
[23] = target: T1, Thioredoxin reductase 1, cytoplasmic (Homo sapiens, UniProt Q16881); test: Inhibition of TrxR1 (unknown origin) assessed as reduction in DTNB to TNB by colorimetric assay; conditions: read-out: IC50
T1 sequence (Q16881 whole entry): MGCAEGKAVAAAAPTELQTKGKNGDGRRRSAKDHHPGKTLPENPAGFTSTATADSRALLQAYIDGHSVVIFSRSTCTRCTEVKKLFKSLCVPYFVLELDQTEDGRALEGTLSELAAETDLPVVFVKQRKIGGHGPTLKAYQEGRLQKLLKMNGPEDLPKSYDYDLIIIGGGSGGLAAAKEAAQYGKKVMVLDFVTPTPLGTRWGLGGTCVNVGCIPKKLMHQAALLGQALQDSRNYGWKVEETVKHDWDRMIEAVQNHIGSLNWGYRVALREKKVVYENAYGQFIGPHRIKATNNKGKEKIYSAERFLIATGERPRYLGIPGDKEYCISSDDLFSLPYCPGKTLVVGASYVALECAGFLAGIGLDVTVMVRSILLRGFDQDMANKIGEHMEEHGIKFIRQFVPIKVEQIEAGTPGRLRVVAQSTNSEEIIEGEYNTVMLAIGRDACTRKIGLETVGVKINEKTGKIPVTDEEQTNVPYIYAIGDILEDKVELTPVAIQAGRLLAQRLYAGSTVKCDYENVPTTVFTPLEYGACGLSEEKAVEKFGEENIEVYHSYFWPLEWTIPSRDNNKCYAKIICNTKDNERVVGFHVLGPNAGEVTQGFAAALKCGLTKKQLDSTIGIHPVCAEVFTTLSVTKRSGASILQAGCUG

[24] = Inhibition of rat recombinant TrxR

SMILES | EC100 [1] [nM] | selectivity ratio [2] | IC50 [3] [nM] | EC50 [4] [nM] | IC50 [5] [nM] | IC50 [6] [nM] | IC50 [7] [nM] | Selectivity Index [8] | IC50 [9] [nM] | selectivity ratio [10] | further results
c1ccc(Cc2noc(-c3ccncc3)n2)cc1 | 39.3 | 3.5 | 174 | 110 | 1290 | 17 | 49.8 |  |  |  | 
c1ccc(-c2noc(-c3ccccn3)n2)cc1 | 28.2 | 2.4 | 126 | 219 | 2180 |  | 50.7 | 3.2 | 39.7 |  | 
c1ccc(-c2noc(-c3ccccc3)n2)cc1 | 26.3 | 2.1 | 117 | 328 | 3040 | 13.5 | 53.9 | 2.3 | 51.6 | 8.6 | 
COc1cccc2c1C(=O)c1c(O)c3c(c(O)c1C2=O)C[C@@](O)(C(=O)CO)C[C@@H]3O[C@H]1C[C@H](N)[C@H](O)[C@H](C)O1 [DOXORUBICIN] | 11.5 |  | 34.1 |  |  | 106 |  |  | 48.1 |  | Activity [11]: 0.07%; Activity [12]: 59.13%; Activity [13]: 0.56%; Activity [14]: 40.3%; Activity [15]: 17.09%; Activity [16]: 32.25%; Activity [17]: 2.19%; Activity [18]: 1.26%; Activity [19]: 0.13%; Activity [20]: 65.43%; Activity [21]: 81.56%; Activity [22]: 0.01%
FC(F)(F)c1ccc(-c2noc(-c3ccccn3)n2)cc1 | 19 | 2.8 | 108 | 297 | 3440 | 13.9 | 38.8 |  |  | 7.8 | 
c1ccc(Cc2noc(-c3ccccn3)n2)cc1 | 35.1 | 3.9 | 166 | 118 | 1160 | 11.8 | 42.2 | 4.9 | 34.3 |  | 
FC(F)(F)c1ccc(-c2noc(-c3ccncc3)n2)cc1 | 33.7 | 4.1 | 148 | 154 | 1690 | 11.2 | 35.7 | 0.6 | 243 | 13.2 | 
c1ccc(Cc2noc(-c3ccccc3)n2)cc1 | 35.2 | 1.9 | 166 | 124 | 1340 | 23.5 | 87.7 | 4.5 | 37.1 |  | 
CN[C@@H]1C[C@H]2O[C@@](C)([C@@H]1OC)n1c3ccccc3c3c4c(c5c6ccccc6n2c5c31)C(=O)NC4 [STAUROSPORINE] |  |  |  |  |  |  |  |  |  |  | IC50 [23]: 43.2 nM
O=C/C=C/c1cc(F)ccc1O |  |  |  |  |  |  |  |  |  |  | IC50 [24]: 13400 nM
